Reference: patent publication US20260284082A1, “TARGETING THE PANX1-P2Y2R-TRPV4 PATHWAY TO TREAT LUNG ISCHEMIA-REPERFUSION INJURY” (UNIVERSITY OF VIRGINIA PATENT FOUNDATION, priority 2023, published 2026)

What was measured:
[1] = test system: pulmonary endothelium of small PAs; test: Endothelial Ca2+ signals in small PAs exposed ex vivo to acute hypoxia-reoxygenation (HR); assay type: cell-based; conditions: GSK219 100 nM; small PAs from TRPV4fl/fl mice, 1 h hypoxia + 10 min reoxygenation
Description: Ca^2+ imaging in Pas: Ca^2+ imaging in small Pas was performed as previously described.8 Fourth-order, small (~50 μm diameter) Pas (see FIG. 1B) were dissected from left lungs in cold HEPES-buffered physiological salt solution (HEPES-PSS; 10 mM HEPES, 134 mM NaCl, 6 mM KCl, 1 mM MgCl2 hexahydrate, 2 mM CaCl2) dihydrate, and 7 mM dextrose; pH adjusted to 7.4 using 1 M NaOH). Ca^2+ imaging studies were performed in en face preparations of small Pas incubated with Fluo-4 AM (10 μM) and pluronic acid (0.04%) at 37° C. for 10 minutes. For studies after sham or lung IR surgery, small Pas were immediately dissected out after the indicated reperfusion time and incubated en face with Fluo-4 AM. […] Fluo-4 was excited using a 488-nm solid-state laser, and emitted fluorescence was captured using a 525/36-nm band-pass filter. […] Baseline Ca^2+ signaling activity was recorded in the absence of CPA.
Analysis of baseline Ca^2+ signaling activity and TRPV4 sparklet activity in the pulmonary endothelium: Ca^2+ images acquired using the procedure described above were analyzed with custom-designed SparkAn software (source code available at https://github.com/vesselman/SparkAn).^10 Fractional fluorescence (F/F0) traces were obtained by placing a 1.7 μm2 (5×5 pixels) region of interest (ROI) at the peak event amplitude. […] Overall baseline Ca^2+ signals were automatically detected using a threshold of 1.25 F/F0. […]

[2] = dog, in vivo; cited from earlier work

O=C(NC1(c2ccccc2)CC1)c1c(CN2CCC(N3CCCCC3)CC2)c(-c2cccc(C(F)(F)F)c2)nc2cc(Br)ccc12 [GSK219, GSK2193874]
HR-induced increase in endothelial Ca2+ signals [1]: completely abolished
plasma half-life (t1/2) [2]: 31 h
